Measured values published in patent EP4458820A1 (Shanghai Institute of Materia Medica, Chinese Academy of …, priority 2021, dated 2023).

Columns and labels:
THR-α = biological target: T1, THR-α (Homo sapiens, UniProt P10827); experiment: in vitro agonist activity at the molecular level (AlphaScreen detection), THR-α; format: biochemical; details: in vitro molecular evaluation system; for Emax: read-out: THR-α Rel % Activity of T3
T1 sequence (P10827 1-410 isoform P10827-2): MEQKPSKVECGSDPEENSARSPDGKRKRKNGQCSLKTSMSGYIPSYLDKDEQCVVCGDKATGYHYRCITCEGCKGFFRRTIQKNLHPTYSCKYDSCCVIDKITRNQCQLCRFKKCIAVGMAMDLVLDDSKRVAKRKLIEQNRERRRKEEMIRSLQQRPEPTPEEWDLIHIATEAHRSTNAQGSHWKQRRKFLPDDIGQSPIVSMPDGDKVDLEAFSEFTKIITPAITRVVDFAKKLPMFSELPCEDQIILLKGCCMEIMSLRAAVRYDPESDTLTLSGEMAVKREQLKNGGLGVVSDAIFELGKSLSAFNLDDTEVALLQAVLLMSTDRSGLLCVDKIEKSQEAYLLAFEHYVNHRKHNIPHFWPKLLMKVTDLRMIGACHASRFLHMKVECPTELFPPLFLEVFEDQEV

THR-β = biological target: T2, THR-β (Homo sapiens, UniProt P10828); experiment: in vitro THR β agonist activity at the molecular level (AlphaScreen detection); format: biochemical; details: in vitro molecular evaluation system; for Selectivity: THR-β versus THR-α; for Emax: read-out: THR-β Rel % Activity of T3
T2 construct: GST; made in house
T2 sequence (P10828 1-461): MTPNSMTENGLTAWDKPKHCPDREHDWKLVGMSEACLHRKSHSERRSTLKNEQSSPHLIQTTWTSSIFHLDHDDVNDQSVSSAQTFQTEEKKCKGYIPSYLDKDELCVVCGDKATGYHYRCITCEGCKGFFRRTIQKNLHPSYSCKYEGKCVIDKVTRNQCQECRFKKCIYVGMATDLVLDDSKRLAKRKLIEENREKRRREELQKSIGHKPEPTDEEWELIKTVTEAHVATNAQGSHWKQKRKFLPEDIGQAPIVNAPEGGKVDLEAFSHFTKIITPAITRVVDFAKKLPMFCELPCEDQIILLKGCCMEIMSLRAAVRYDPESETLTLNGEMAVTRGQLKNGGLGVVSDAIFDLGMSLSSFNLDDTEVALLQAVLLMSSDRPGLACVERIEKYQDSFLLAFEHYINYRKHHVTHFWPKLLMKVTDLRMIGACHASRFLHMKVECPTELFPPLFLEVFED
Method: At the molecular level, the binding ability of the compound to thyroid hormone receptor β (THR β) was measured by AlphaScreen detection. Firstly, recombinant GST-THR β fusion proteins were constructed, followed by compound-receptor binding reactions in 384-well plates.

| Compound | EC50 (THR-α) | Emax (THR-α) | EC50 (THR-β) | Selectivity (THR-β) | Emax (THR-β) |
| --- | --- | --- | --- | --- | --- |
| Cc1cc(-c2ccoc2)nc2ccc(Oc3c(Cl)cc(-n4nc(C#N)c(=O)[nH]c4=O)cc3Cl)cc12 [Compound 17] | 1240 nM | 57.6% | 296 nM | 4.2 | 73.7% |
| Nc1nn(-c2cc(Cl)c(Oc3ccc4nccc(Cl)c4c3)c(Cl)c2)c(=O)[nH]c1=O [Compound 99, 6-amino-2-(3,5-dichloro-4((4-chloroquinolin-6-yl)oxy)phenyl)-1,2,4-triazine-3,5(2H,4H)-dione] | 248 nM | 67.5% | 31.5 nM | 7.85 | 76.3% |
| Cc1cc(C2CCCCC2)nc2ccc(Oc3c(Cl)cc(-n4nc(N)c(=O)[nH]c4=O)cc3Cl)cc12 [Compound 134, 6-amino-2-(3,5-dichloro-4-((2-cyclohexyl-4-methylquinolin-6-yl)oxy)phenyl)-1,2,4-triazine-3,5(2H,4H)-dione] | 429 nM | 38.4% | 120 nM | 4.2 | 92.3% |
| Cc1cc(-c2cccs2)nc2ccc(Oc3c(Cl)cc(-n4nc(C#N)c(=O)[nH]c4=O)cc3Cl)cc12 [Compound 19, 2-(3,5-Dichloro-4-((2-(thiophen-2-yl) -4-methylquinolin-6-yl)oxy)phenyl) -3,5-dioxo-2,3,4,5-tetrahydro-1,2,4-triazine-6-carbonitrile] | > 50000 nM |  | 379 nM |  | 71.8% |
| Cc1cc(-c2ccco2)nc2ccc(Oc3c(Cl)cc(-n4nc(C#N)c(=O)[nH]c4=O)cc3Cl)cc12 [Compound 15, 2-(3,5-Dichloro-4-((2-(furan-2-yl)-4-methylquinolin-6-yl)oxy)phenyl) -3,5-dioxo-2,3,4,5-tetrahydro-1,2,4-triazine-6-carbonitrile] | 280 nM | 62.5% | 71.7 nM | 3.9 | 84.3% |
| Cc1cc(-c2ccc(F)cc2)nc2ccc(Oc3c(Cl)cc(-n4nc(N)c(=O)[nH]c4=O)cc3Cl)cc12 [Compound 60, 6-amino-2-(3,5-dichloro-4-((2-(4-fluorophenyl)-4-methylquinolin-6-yl)oxy)phenyl)-1,2,4-triazine-3,5(2H,4H)-dione] | 57.2 nM | 62.7% | 8.3 nM | 6.89 | 83% |
